In ChEMBL document CHEMBL1149239, “Synthesis and pharmacological evaluation of piperidinoalkanoyl-1,2,3,4-tetrahydroisoquinoline derivatives as novel specific bradycardic agents” (2004):

Legend:
Format in all cases: functional
Cavia porcellus = species on record: Cavia porcellus; test: Concentration required to produce 30% reduction from the initial beat rates in isolated guinea pig right atria.
Rattus norvegicus [1] = test: Reduction of spontaneous sinus heart rate (HR) when […] in conscious rats; Reduced from -5.28 to -20.0 beats/min
Rattus norvegicus [2] = test: Reduction of mean blood pressure (MBP) when […] in conscious rats; Reduced from 2.12 to 2.0 mmHg
Rattus norvegicus [3] = test: Reduction of spontaneous sinus heart rate (HR) when […] in conscious rats; Reduced from -23.5 to -87.8 beats/min

SMILES | EC30 (Cavia porcellus) | further results
COc1cc2c(cc1OC)CN(C(=O)CCN1CCCC(CCCOc3ccc4c(c3)OCO4)C1)CC2 (stereo not given) | 0.39 µM | –
COc1cc2c(cc1OC)CN(C(=O)CCN1CCC(COc3ccc4c(c3)OCO4)CC1)CC2 | 0.47 µM | Heart rate (Rattus norvegicus [1]): -20 beats min-1
COc1cc2c(cc1OC)CN(C(=O)CCN1CCC(CCOc3ccc4c(c3)OCO4)CC1)CC2 | 0.45 µM | –
COc1cc2c(cc1OC)CN(C(=O)CCN1CCCC(Oc3ccc4c(c3)OCO4)C1)CC2 (stereo not given) | 3.03 µM | –
COc1cc2c(cc1OC)CN(C(=O)CN1CCCC(COc3ccc4c(c3)OCO4)C1)CC2 (stereo not given) | 1.17 µM | –
COc1cc2c(cc1OC)CN(C(=O)CCN1CCCC(COc3ccc4c(c3)OCO4)C1)CC2 (stereo not given) | 0.17 µM | –
COc1cc2c(cc1OC)CN(C(=O)C1CCCN(CCCOc3ccc4c(c3)OCO4)C1)CC2 (stereo not given) | 0.37 µM | –
COc1cc2c(cc1OC)CN(C(=O)CCN1CCC(Oc3ccc4c(c3)OCO4)CC1)CC2 | 0.44 µM | MBP (Rattus norvegicus [2]): 2 mmHg; Heart rate (Rattus norvegicus [3]): -87.8 beats min-1
COc1cc2c(cc1OC)CN(C(=O)CCCN1CCCC(COc3ccc4c(c3)OCO4)C1)CC2 (stereo not given) | 0.85 µM | –
COc1ccc(CCN(C)CCCN2CCc3cc(OC)c(OC)cc3CC2=O)cc1OC [ZATEBRADINE] | 0.26 µM | –
COc1cc2c(cc1OC)CN(C(=O)CCN1CCC(CCCOc3ccc4c(c3)OCO4)CC1)CC2 | 0.62 µM | –
COc1cc2c(cc1OC)CN(C(=O)CCN1CCCC(CCOc3ccc4c(c3)OCO4)C1)CC2 (stereo not given) | 0.34 µM | –
